Assay [1] concerns the target Recombinant ROCK1 (Homo sapiens (Human), UniProt Q13464). Put plainly: Lance Ultra Kinase Assay, ROCK1 inhibition. It counts as biochemical. The note with it: ATP at Km, 30 min pre-incubation, 1 h reaction.
Procedure: (§1) The inhibition potency of compounds against these enzymes was assessed using Lance Ultra Kinase Assay. In brief, recombinant kinases were pre-incubated in the presence or absence of compound at room temperature for 30 minutes. The reaction was initiated by the addition of the ATP (Km) and substrate peptide which could be phosphorylated by kinases in the reaction. After 1 h incubation, the reaction was stopped by the addition of the detection reagent mix containing EDTA. The fluorescence was measured at 615 nm and 665 nm, respectively with excitation wavelength at 320 nm. The calculated signal ratio of 665 nm/615 nm is proportional to the kinase activity.
The target in assay [2] is Recombinant ROCK2 (Homo sapiens (Human), UniProt O75116). Put plainly: Lance Ultra Kinase Assay, ROCK2 inhibition. It counts as biochemical. The note with it: ATP at Km, 30 min pre-incubation, 1 h reaction.
Procedure: as §1

Molecules are shown by their SMILES.

The values below come from US20250346616A1 (DIZAL (JIANGSU) PHARMACEUTICAL CO., LTD., priority 2022, published 2025).

Usually IC50 stands for the concentration that inhibits the measured activity by half.

Recombinant ROCK2, sequence (O75116 whole entry): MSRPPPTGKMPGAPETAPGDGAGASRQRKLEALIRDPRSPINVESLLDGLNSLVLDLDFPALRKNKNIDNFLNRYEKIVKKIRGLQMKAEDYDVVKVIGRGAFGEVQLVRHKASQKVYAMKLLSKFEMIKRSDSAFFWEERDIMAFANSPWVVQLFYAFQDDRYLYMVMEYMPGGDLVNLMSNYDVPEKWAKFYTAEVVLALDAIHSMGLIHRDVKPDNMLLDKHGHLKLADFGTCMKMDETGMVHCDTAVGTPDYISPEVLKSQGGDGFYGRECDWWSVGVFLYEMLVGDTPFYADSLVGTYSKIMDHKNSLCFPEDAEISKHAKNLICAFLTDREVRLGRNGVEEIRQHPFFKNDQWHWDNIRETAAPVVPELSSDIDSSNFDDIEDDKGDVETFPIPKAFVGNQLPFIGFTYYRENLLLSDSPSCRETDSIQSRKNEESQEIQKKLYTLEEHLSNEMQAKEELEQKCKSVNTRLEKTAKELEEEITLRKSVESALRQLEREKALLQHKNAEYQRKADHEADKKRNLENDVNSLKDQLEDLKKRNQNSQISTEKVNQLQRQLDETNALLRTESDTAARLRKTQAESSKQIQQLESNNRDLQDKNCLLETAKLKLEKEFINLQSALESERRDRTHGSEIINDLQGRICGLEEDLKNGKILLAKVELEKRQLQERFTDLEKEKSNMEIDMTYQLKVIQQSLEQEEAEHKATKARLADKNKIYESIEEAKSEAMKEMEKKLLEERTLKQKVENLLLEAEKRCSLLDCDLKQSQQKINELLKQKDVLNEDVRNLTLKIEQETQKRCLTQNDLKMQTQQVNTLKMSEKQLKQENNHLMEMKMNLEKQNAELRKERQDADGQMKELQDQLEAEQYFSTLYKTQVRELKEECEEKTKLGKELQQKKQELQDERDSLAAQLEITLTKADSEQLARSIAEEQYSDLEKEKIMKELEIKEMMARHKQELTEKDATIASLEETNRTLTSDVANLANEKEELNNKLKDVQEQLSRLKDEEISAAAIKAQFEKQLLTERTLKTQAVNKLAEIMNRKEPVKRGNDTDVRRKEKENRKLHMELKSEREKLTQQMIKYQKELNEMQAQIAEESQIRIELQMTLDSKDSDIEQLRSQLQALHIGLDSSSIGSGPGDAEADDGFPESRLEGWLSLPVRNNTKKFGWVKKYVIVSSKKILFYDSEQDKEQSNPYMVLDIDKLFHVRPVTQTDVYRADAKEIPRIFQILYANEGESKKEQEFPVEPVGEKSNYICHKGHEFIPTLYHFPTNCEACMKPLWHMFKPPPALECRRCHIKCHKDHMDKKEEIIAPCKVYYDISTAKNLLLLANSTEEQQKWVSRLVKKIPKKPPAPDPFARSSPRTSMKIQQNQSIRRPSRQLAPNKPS
Recombinant ROCK1, sequence (Q13464 whole entry): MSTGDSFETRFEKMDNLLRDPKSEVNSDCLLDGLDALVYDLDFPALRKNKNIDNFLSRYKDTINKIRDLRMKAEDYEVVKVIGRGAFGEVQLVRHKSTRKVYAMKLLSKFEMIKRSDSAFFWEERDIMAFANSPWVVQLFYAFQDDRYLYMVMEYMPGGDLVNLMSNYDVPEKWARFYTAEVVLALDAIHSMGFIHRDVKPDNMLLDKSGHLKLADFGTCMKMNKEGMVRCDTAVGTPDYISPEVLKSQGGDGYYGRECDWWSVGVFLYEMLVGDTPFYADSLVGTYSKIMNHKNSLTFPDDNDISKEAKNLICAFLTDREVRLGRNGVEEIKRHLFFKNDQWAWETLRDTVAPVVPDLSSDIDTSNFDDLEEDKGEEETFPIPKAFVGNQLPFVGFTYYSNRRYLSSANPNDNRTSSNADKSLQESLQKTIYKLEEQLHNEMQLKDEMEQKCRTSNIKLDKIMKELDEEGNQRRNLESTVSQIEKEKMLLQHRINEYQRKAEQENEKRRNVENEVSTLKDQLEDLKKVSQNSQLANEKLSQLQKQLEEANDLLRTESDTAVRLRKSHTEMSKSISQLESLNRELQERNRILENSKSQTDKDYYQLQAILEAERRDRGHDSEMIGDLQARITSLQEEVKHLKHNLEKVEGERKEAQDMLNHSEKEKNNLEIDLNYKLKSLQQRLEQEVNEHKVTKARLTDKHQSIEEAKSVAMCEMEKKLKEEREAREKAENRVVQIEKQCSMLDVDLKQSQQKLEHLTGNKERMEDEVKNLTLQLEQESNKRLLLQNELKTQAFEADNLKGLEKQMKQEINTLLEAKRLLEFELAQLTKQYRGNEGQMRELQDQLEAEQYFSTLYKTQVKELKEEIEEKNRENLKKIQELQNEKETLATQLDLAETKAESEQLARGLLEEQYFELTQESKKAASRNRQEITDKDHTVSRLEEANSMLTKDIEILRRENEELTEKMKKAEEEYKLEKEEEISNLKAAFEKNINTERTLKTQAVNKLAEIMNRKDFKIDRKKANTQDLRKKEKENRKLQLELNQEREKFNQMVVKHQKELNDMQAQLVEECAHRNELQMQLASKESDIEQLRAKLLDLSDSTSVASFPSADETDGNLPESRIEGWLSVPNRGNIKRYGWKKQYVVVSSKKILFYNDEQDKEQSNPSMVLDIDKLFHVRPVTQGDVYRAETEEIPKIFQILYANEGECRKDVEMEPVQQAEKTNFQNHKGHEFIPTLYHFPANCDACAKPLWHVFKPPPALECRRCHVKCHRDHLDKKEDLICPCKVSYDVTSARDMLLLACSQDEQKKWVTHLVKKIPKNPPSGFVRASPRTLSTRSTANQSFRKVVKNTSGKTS

`NCC(C(=O)Nc1cccc2c(-c3cn[nH]c3)c[nH]c12)c1ccc(C(=O)O)cc1` (racemic) [Example 71, 4-(2-amino-1-{[3-(1H-pyrazol-4-yl)-1H-indol-7-yl]carbamoyl}ethyl)benzoic acid]: the figures for the 50% inhibitory concentration (IC50) in assay [1] and in assay [2] were 227 nM and 64 nM, respectively.

Turning to `CN(C)C(=O)c1ccc(C(CN)C(=O)Nc2cccc3c(-c4cn[nH]c4)c[nH]c23)cc1` (racemic) [Example 72, 4-(2-amino-1-{[3-(1H-pyrazol-4-yl)-1H-indol-7-yl]carbamoyl}ethyl)-N,N-dimethylbenzamide], the IC50 amounted to 173 nM in assay [1] and 67 nM in assay [2].

In the case of `CNC(=O)c1ccc(C(CN)C(=O)Nc2cccc3c(-c4cn[nH]c4)c[nH]c23)cc1` (racemic) [Example 73, 4-(2-amino-1-{[3-(1H-pyrazol-4-yl)-1H-indol-7-yl]carbamoyl}ethyl)-N-methylbenzamide], the IC50 in assay [1] was 82 nM; in assay [2], 20 nM.

As to `NCC(C(=O)Nc1cccc2c(-c3cn[nH]c3)c[nH]c12)c1cccc(CO)c1` (racemic) [Example 75, 3-amino-2-[3-(hydroxymethyl)phenyl]-N-[3-(1H-pyrazol-4-yl)-1H-indol-7-yl]propanamide], the half-maximal inhibitory concentration (IC50) came out at 204 nM in assay [1] and 71 nM in assay [2].

Turning to `NCc1cccc(C(CN)C(=O)Nc2cccc3c(-c4cn[nH]c4)c[nH]c23)c1` (racemic) [Example 76, 3-amino-2-[3-(aminomethyl)phenyl]-N-[3-(1H-pyrazol-4-yl)-1H-indol-7-yl]propanamide], the IC50 in assay [1] is 14 nM; in assay [2], 7.9 nM.

Turning to `NCc1ccc(C(CN)C(=O)Nc2cccc3c(-c4cn[nH]c4)c[nH]c23)cc1` (racemic) [Example 77, 3-amino-2-[4-(aminomethyl)phenyl]-N-[3-(1H-pyrazol-4-yl)-1H-indol-7-yl]propanamide], the half-maximal inhibitory concentration (IC50) in assay [1] was found to be 84 nM; in assay [2] it was 32 nM.

In the case of `CN(C)Cc1cccc(C(CN)C(=O)Nc2cccc3c(-c4cn[nH]c4)c[nH]c23)c1` (racemic) [Example 78, 3-amino-2-{3-[(dimethylamino)methyl]phenyl}-N-[3-(1H-pyrazol-4-yl)-1H-indol-7-yl]propanamide], the half-inhibitory concentration (IC50) in assay [1] stood at 34 nM; in assay [2] it was 16 nM.

As to `NCC(C(=O)Nc1cccc2c(-c3cn[nH]c3)c[nH]c12)c1ccc(O)cc1` (racemic) [Example 79, N-(3-(1H-pyrazol-4-yl)-1H-indol-7-yl)-3-amino-2-(4-hydroxyphenyl)-propanamide], the half-inhibitory concentration (IC50) worked out at 2.9 nM in assay [1] and 1.7 nM in assay [2].

Regarding `NCC(C(=O)Nc1cccc2c(-c3cn[nH]c3)c[nH]c12)c1ccc(N)cc1` (racemic) [Example 80, 3-amino-2-(4-aminophenyl)-N-[3-(1H-pyrazol-4-yl)-1H-indol-7-yl]propanamide], the IC50 in assay [1] turned out to be 0.39 nM; in assay [2] it was 0.18 nM.

Take `NCC(C(=O)Nc1cccc2c(-c3cn[nH]c3)c[nH]c12)c1cccc(N)c1` (racemic) [Example 81, 3-amino-2-(3-aminophenyl)-N-[3-(1H-pyrazol-4-yl)-1H-indol-7-yl]propanamide]: the values for the IC50 in assay [1] and in assay [2] were 1.8 nM and 0.91 nM, respectively.

For the compound `COc1cc(OC)cc(C(N)C(=O)Nc2cccc3c(-c4cn[nH]c4)c[nH]c23)c1` (racemic) [Example 83, 2-amino-2-(3,5-dimethoxyphenyl)-N-[3-(1H-pyrazol-4-yl)-1H-indol-7-yl]acetamide], the concentration for half-maximal inhibition (IC50) in assay [1] came to 7.3 nM; in assay [2] it was 3.1 nM.

Regarding `COc1ccccc1C(CN)C(=O)Nc1cccc2c(-c3cn[nH]c3)c[nH]c12` (racemic) [Example 84, 3-amino-2-(2-methoxyphenyl)-N-[3-(1H-pyrazol-4-yl)-1H-indol-7-yl]propanamide], the IC50 is 1.3 nM in assay [1] and 0.96 nM in assay [2].

Consider `NCC(C(=O)Nc1cccc2c(-c3cn[nH]c3)c[nH]c12)c1ccc(F)cc1` (racemic) [Example 85, 3-amino-2-(4-fluorophenyl)-N-[3-(1H-pyrazol-4-yl)-1H-indol-7-yl]propanamide], for which the half-maximal inhibitory concentration (IC50) in assay [1] was 0.81 nM; in assay [2] it was 0.52 nM.

On to `N#Cc1ccc(C(CN)C(=O)Nc2cccc3c(-c4cn[nH]c4)c[nH]c23)cc1` (racemic) [Example 86, 3-amino-2-(4-cyanophenyl)-N-[3-(1H-pyrazol-4-yl)-1H-indol-7-yl]propanamide], for which the IC50 was determined as 2.7 nM in assay [1] and 0.98 nM in assay [2].

Take `Cc1cccc(C(CN)C(=O)Nc2cccc3c(-c4cn[nH]c4)c[nH]c23)c1` (racemic) [Example 87, N-(3-(1H-pyrazol-4-yl)-1H-indol-7-yl)-3-amino-2-(m-tolyl)propanamide]: the half-inhibitory concentration (IC50) in assay [1] turned out to be 0.29 nM; in assay [2], 0.18 nM.

As to `COCCOc1ccc(C(CN)C(=O)Nc2cccc3c(-c4cn[nH]c4)c[nH]c23)cc1` (racemic) [Example 88, 3-amino-2-[4-(2-methoxyethoxy)phenyl]-N-[3-(1H-pyrazol-4-yl)-1H-indol-7-yl]propanamide], the IC50 was 17 nM in assay [1] and 9.3 nM in assay [2].

For `NCC(C(=O)Nc1cccc2c(-c3cn[nH]c3)c[nH]c12)c1cccc(Cl)c1` (racemic) [Example 89, 3-amino-2-(3-chlorophenyl)-N-[3-(1H-pyrazol-4-yl)-1H-indol-7-yl]propanamide], the half-maximal inhibitory concentration (IC50) in assay [1] worked out at 1.2 nM; in assay [2], 0.66 nM.

As to `COc1ccc(C(CN)C(=O)Nc2cccc3c(-c4cn[nH]c4)c[nH]c23)cc1` (racemic) [Example 90, 3-amino-2-(4-methoxyphenyl)-N-[3-(1H-pyrazol-4-yl)-1H-indol-7-yl]propanamide], the figures for the IC50 in assay [1] and in assay [2] were 5.3 nM and 0.91 nM, respectively.

Regarding `CC(=O)Nc1ccc(C(CN)C(=O)Nc2cccc3c(-c4cnn(C(=O)OC(C)(C)C)c4)c[nH]c23)cc1` (racemic) [Example 92, tert-butyl 4-{7-[3-amino-2-(4-acetamidophenyl)propanamido]-1H-indol-3-yl}pyrazole-1-carboxylate], the values for the IC50 in assay [1] and in assay [2] were 16 nM and 6 nM, respectively.

For the compound `Cc1cccc(C(CN)C(=O)Nc2cccc3c(-c4cn[nH]c4)c[nH]c23)n1` (racemic) [Example 93, 3-amino-2-(6-methylpyridin-2-yl)-N-[3-(1H-pyrazol-4-yl)-1H-indol-7-yl]propanamide], the IC50 in assay [1] came to 20 nM; in assay [2], 13 nM.

For `NCC(C(=O)Nc1cccc2c(-c3cn[nH]c3)c[nH]c12)C1CCOC1` (racemic) [Example 94, N-(3-(1H-pyrazol-4-yl)-1H-indol-7-yl)-3-amino-2-(tetrahydrofuran-3-yl)propanamide], the half-inhibitory concentration (IC50) in assay [1] came to 6.5 nM; in assay [2], 3 nM.

Take `NCC(C(=O)Nc1cccc2c(-c3cn[nH]c3)c[nH]c12)C1CCCC1` (racemic) [Example 95, 3-amino-2-cyclopentyl-N-[3-(1H-pyrazol-4-yl)-1H-indol-7-yl]propanamide]: the concentration for half-maximal inhibition (IC50) in assay [1] stood at 3.7 nM; in assay [2], 2.3 nM.

Take `NCC(C(=O)Nc1cccc2c(-c3cn[nH]c3)c[nH]c12)C1CCOC1` (racemic) [Example 96, N-(3-(1H-pyrazol-4-yl)-1H-indol-7-yl)-3-amino-2-(tetrahydrofuran-3-yl)propanamide]: the IC50 turned out to be 7.3 nM in assay [1] and 4 nM in assay [2].

For the compound `CP(C)(=O)c1ccc(C(CN)C(=O)Nc2cccc3c(-c4cn[nH]c4)c[nH]c23)cc1` (racemic) [Example 97, 3-amino-2-[4-(dimethylphosphoryl)phenyl]-N-[3-(1H-pyrazol-4-yl)-1H-Indol-7-yl]propanamide], the IC50 in assay [1] was found to be 122 nM; in assay [2], 28 nM.

In the case of `NCC(C(=O)Nc1cccc2c(-c3cn[nH]c3)c[nH]c12)c1ccccn1` (racemic) [Example 98, 3-amino-N-[3-(1H-pyrazol-4-yl)-1H-indol-7-yl]-2-(pyridin-2-yl)propanamide], the half-maximal inhibitory concentration (IC50) in assay [1] was determined as 9.2 nM; in assay [2], 4.3 nM.

As to `CC(=O)NCc1ccc(C(CN)C(=O)Nc2cccc3c(-c4cn[nH]c4)c[nH]c23)cc1` (racemic) [Example 99, N-(3-(1H-pyrazol-4-yl)-1H-indol-7-yl)-2-(4-(acetamidomethyl)phenyl)-3-aminopropanamide], the 50% inhibitory concentration (IC50) in assay [1] is 3.2 nM; in assay [2], 1.1 nM.

Take `COc1cc(C(CN)C(=O)Nc2cccc3c(-c4cn[nH]c4)c[nH]c23)ccc1CO` (racemic) [Example 101, 3-amino-2-[4-(hydroxymethyl)-3-methoxyphenyl]-N-[3-(1H-pyrazol-4-yl)-1H-indol-7-yl]propanamide]: the half-maximal inhibitory concentration (IC50) was 1.6 nM in assay [1] and 0.81 nM in assay [2].

Take `COc1cncc(C(CN)C(=O)Nc2cccc3c(-c4cn[nH]c4)c[nH]c23)c1` (racemic) [Example 102, 3-amino-2-(5-methoxypyridin-3-yl)-N-[3-(1H-pyrazol-4-yl)-1H-indol-7-yl]propanamide]: the IC50 in assay [1] stood at 1.3 nM; in assay [2], 0.56 nM.

Regarding `Cn1ccc(C(CN)C(=O)Nc2cccc3c(-c4cn[nH]c4)c[nH]c23)cc1=O` (racemic) [Example 103, 3-amino-2-(1-methyl-2-oxopyridin-4-yl)-N-[3-(1H-pyrazol-4-yl)-1H-indol-7-yl]propanamide], the IC50 was determined as 1.4 nM in assay [1] and 0.53 nM in assay [2].

For `COc1ccc(C(N)C(=O)Nc2cccc3c(-c4cn[nH]c4)c[nH]c23)cc1` (racemic) [Example 104, 2-amino-2-(4-methoxyphenyl)-N-[3-(1H-pyrazol-4-yl)-1H-indol-7-yl]acetamide], the results for the IC50 in assay [1] and in assay [2] were 2 nM and 0.9 nM, respectively.

With `CC(N)(C(=O)Nc1cccc2c(-c3cn[nH]c3)c[nH]c12)c1ccccc1` (racemic) [Example 107, 2-amino-2-phenyl-N-[3-(1H-pyrazol-4-yl)-1H-indol-7-yl]propanamide], the concentration for half-maximal inhibition (IC50) in assay [1] was determined as 6 nM; in assay [2], 3.7 nM.

As for `NC(C(=O)Nc1cccc2c(-c3cn[nH]c3)c[nH]c12)C1CCCCC1` (racemic) [Example 122, N-(3-(1H-pyrazol-4-yl)-1H-indol-7-yl)-2-amino-2-cyclohexylacetamide], the values for the half-maximal inhibitory concentration (IC50) in assay [1] and in assay [2] were 11 nM and 8.9 nM, respectively.
